Reference: patent publication US8329940B2, “18β-glycyrrhetinic acid derivatives and synthetic method thereof” (Kaohsiung Medical University, priority 2009, dated 2012)
Like-named read-outs stand apart in the source and are kept apart here.

How the values were obtained:
[1] = system: accumulation of NO2− in RAW 264.7 cells stimulated with LPS; assay: Nitrite (NO2−) accumulation in RAW 264.7 cells stimulated with LPS (Griess reaction); format: cell-based, Murine; settings: for IC50: RAW 264.7 cells stimulated with LPS, 24 h, read-out: IC50 (B) accumulation of NO2− in RAW 264.7; for % of inhibition of NO2− accumulation (in parentheses): at the highest concentration, RAW 264.7, LPS
Method: (§1) Nitrite is a stable metabolite of NO in the media based on Griess reaction. […] To determine whether the inhibition of NO production in RAW 264.7 cells is attributed to the decrease of iNOS protein expression, Western blotting analysis is performed. Unstimulated cells expressed very low level of iNOS protein, whereas LPS 50 ng/mL induced a large amount of iNOS protein expression. […] Thus, the blockade of iNOS transcription has a critical role as evidenced from the parallelism of the inhibition of NO production and iNOS protein expression by compound 14.

[2] = system: superoxide anion formation from rat neutrophils stimulated with fMLP/CB; assay: Superoxide anion formation in rat neutrophils stimulated by fMLP/CB; format: cell-based; settings: for IC50: rat neutrophils stimulated with fMLP (0.3 μM)/CB (5 μg/mL), 30 min; for % of inhibition of superoxide anion formation, fMLP/CB (in parentheses): at the highest concentration, rat neutrophils
Method: Compound stock solution (30 mM in DMSO) is prepared and stored at −25° C. before experiment. In the superoxide anion generation experiments, neutrophils isolated from the peripheral blood of the rats are stimulated with formyl-Met-Leu-Phe (fMLP, 0.3 μM)/Cytochalasin B (CB, 5 μg/mL) for 30 min in the presence of cytochrome c, and the superoxide anion generation is measured in terms of superoxide dismutase-inhibitable cytochrome c reduction.

plasmid pBR322DNA = assay: Inhibition of oxidative DNA damage by O2− from xanthine/xanthine oxidase (agarose gel electrophoresis); settings: 500 μM compound, xanthine (2 mM)/xanthine oxidase (0.7 U/mL), 20 min, 37° C.
Method: A mixture of the plasmid pBR322DNA ([…]) and xanthine (2 mM)/xanthine oxidase (0.7 U/mL) in 10 mM phosphate buffer (pH 7.4) is incubated for 20 min with 500 μlM of superoxide dismutase, quercetin, or compounds 2, 6, 7, 13, 14, and 20 in a total volume of 20 μL at 37° C., respectively. After incubating for 20 min, a 15 μL aliquot of mixture is loaded into 1.0% agarose gel containing ethidium bromide (0.05 μg/mL) in Tris-acetate-ethylenediaminetetraacetic acid (EDTA) buffer. The electrophoresis is carried out for 30 min at 100 V. Then the gels are illuminated with UV light and photographed.
ROS have been known to damage many biological macromolecules, for instance, with DNA being a significant target. The ability of 18β-GA derivatives to inhibit the DNA damage caused by O2^− (generated by xanthine (XA)/XO) is studied in vitro by agarose gel electrophoresis. […] For determined the antioxidant activities of these compounds, the radical scavenging activities and XO inhibitory activities of these compounds are analyzed.

xanthine oxidase (XO) [3] = biological target: xanthine oxidase (XO) (Homo sapiens, UniProt P47989); assay: Xanthine oxidase activity assay; format: biochemical; settings: xanthine as substrate, 25° C.
Sequence of xanthine oxidase (XO) (P47989 whole entry, species assumed): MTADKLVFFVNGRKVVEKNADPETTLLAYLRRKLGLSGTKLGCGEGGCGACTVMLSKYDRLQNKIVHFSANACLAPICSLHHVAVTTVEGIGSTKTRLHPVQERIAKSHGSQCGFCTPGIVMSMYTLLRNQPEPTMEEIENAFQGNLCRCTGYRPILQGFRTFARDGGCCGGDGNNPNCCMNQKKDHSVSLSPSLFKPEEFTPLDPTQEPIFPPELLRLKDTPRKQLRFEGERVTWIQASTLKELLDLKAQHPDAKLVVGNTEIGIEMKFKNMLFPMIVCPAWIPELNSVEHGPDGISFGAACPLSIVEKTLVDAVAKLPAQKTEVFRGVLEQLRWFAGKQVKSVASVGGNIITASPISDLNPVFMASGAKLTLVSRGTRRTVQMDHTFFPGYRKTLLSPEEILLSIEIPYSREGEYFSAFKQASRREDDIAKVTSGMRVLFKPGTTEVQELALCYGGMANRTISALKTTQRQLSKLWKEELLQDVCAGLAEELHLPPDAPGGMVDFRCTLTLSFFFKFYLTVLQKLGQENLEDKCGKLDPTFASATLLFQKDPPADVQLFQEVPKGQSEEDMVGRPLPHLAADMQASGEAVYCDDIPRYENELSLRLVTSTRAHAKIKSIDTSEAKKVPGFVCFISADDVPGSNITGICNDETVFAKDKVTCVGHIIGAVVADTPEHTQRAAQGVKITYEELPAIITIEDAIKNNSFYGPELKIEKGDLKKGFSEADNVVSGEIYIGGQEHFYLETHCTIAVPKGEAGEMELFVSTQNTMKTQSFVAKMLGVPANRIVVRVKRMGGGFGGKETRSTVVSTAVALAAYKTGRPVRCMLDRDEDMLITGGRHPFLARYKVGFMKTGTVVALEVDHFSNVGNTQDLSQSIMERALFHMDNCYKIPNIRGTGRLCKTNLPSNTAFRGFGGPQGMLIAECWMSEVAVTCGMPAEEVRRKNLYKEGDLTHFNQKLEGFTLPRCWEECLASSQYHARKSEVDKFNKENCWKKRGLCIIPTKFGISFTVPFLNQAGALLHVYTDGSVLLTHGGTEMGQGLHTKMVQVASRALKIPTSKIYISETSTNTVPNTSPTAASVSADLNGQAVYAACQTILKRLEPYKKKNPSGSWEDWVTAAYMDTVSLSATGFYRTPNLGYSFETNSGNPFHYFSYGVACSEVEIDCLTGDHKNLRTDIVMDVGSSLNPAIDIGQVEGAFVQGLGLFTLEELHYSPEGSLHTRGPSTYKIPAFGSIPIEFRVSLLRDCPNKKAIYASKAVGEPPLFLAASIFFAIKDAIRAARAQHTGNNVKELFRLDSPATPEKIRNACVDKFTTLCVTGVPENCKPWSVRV
Sequence of xanthine oxidase (XO) (Homo sapiens, UniProt P47989) (P47989 whole entry, species assumed): as above
Method: (§2) The xanthine oxidase activity with xanthine as the substrate is measured at 25° C., according to the protocol of Kong and associates (Cell Mol. […] After preincubation at 25° C. for 15 min, the reaction is initiated by addition of 60 μL of substrate solution (150 μM xanthine in the same buffer). The reaction is monitored at 295 nm. The xanthine oxidase activity is expressed as micromoles of uric acid per minute.

[4] = system: TNF-a formation from RAW 264.7 cells stimulated with LPS; settings: for % of inhibition of TNF-a formation (in parentheses): at the highest concentration, RAW 264.7, LPS
Method: Nitric oxide (NO) in the cell medium is determined by the Griess reaction. In Western blot analysis, cells are washed with PBS twice and harvested in Laemmli sodium dodecyl sulfate (SDS) sample buffer to lyse the cells. Cell lysates are separated by 10% SDS-PAGE, and electrophoretically transferred to the poly(vinylidene difluoride) membranes. Membranes are blocked for 1 h at room temperature in TBST buffer (10 mM Tris-HCl, pH 8.0, 150 mM NaCl and 0.1% Tween 20) containing 5% nonfat milk. Membranes are washed with TBST buffer and then incubated with a monoclonal anti-iNOS antibody (1:1000 dilution) for 1 h. Following washed with TBST buffer, horseradish peroxidase-labeled anti-mouse IgG (1:10,000 dilution) is added therein at room temperature for 1 h. The blots are developed using ECL Western blotting reagents. Secretory levels of TNF-a in culture supernatants are determined by the EIA kit according to the procedure of manufacturer.

[5] = system: superoxide anion formation from rat neutrophils stimulated with PMA; assay: Superoxide anion formation in rat neutrophils stimulated by PMA; format: cell-based; settings: for % of inhibition of superoxide anion formation, PMA (in parentheses): at the highest concentration, rat neutrophils; for IC50: rat neutrophils stimulated with PMA
xanthine oxidase (XO) [6] = assay: Xanthine oxidase activity assay; format: biochemical; settings: xanthine as substrate, 25° C., 295 nm
Method: as §2

iNOS protein expression = iNOS protein expression in LPS-stimulated RAW 264.7 cells (Western blot); format: cell-based, Murine; settings: RAW 264.7, LPS 50 ng/mL
Method: as §1

[7] = read-out: IC50 (C) TNF-a formation in RAW 264.7, RAW 264.7 cells stimulated with LPS
[8] = Mus musculus, RAW264.7, read-out: IC50 (C) TNF-a formation in RAW 264.7

Row | SMILES | IC50 [1] [µM] | % of inhibition of NO2− accumulation (in parentheses) [1] [%] | IC50 [2] [µM] | IC50 [4, 7] [µM] | % of inhibition of superoxide anion formation, fMLP/CB (in parentheses) [2] [%] | % of inhibition of TNF-a formation (in parentheses) [4] [%] | % of inhibition of superoxide anion formation, PMA (in parentheses) [5] [%] | IC50 [5] [µM] | other results
1 | CC1(C)C(=O)CC[C@]2(C)[C@H]3C(=O)C=C4[C@@H]5C[C@@](C)(C(=O)O)CC[C@]5(C)CC[C@@]4(C)[C@]3(C)CC[C@@H]12 [Compound 2] | > 30 | 45.6 ± 9.1 | 10.3 ± 5.2 |  |  |  |  |  | inhibitory effect on NO accumulation in the media induced by LPS ([1]; each at 30 μM, RAW 264.7): about 40%; protective effect on oxidative DNA damage caused by O2− (plasmid pBR322DNA): significant protective effects; inhibition of XO activity (xanthine oxidase (XO) [3]): weakly inhibit
2 | COC(=O)C1(C)CCC2(C)CCC3(C)C(=CC(=O)C4C5(C)CCC(O)C(C)(C)C5CCC43C)C2C1 (stereo not drawn) [Compound 3] |  |  |  | 1.3 ± 0.4 |  |  |  |  | 
3 | CC1(C(=O)O)CCC2(C)CCC3(C)C(=CC(=O)C4C5(C)CCC(=O)OC(C)(C)C5CCC43C)C2C1 (stereo not drawn) [Compound 5] | > 3 | 3.0 ± 4.2 | > 3 | > 3 | 27.4 ± 9.2 | −0.7 ± 2.7 | −8.2 ± 11.8 | > 3 | 
4 | COC(=O)C1(C)CCC2(C)CCC3(C)C(=CC(=O)C4C5(C)CCC(=O)OC(C)(C)C5CCC43C)C2C1 (stereo not drawn) [Compound 6, 3,4 lactone 30 methyl ester] |  |  |  |  |  |  |  |  | melting point: 166 to 171 °C; protective effect on oxidative DNA damage caused by O2− (plasmid pBR322DNA): significant protective effects; IC50 (xanthine oxidase (XO) [6]): 132 ± 2.7 µM; IC50 ([5]; Neutrophil): 12.9 ± 1.8 µM
5 | C=C(C)C1CCC2(C)C(C(=O)C=C3C4CC(C)(C(=O)O)CCC4(C)CCC32C)C1(C)CCC(=O)O (stereo not drawn) [Compound 7] |  |  | 7 ± 2 |  |  |  |  |  | protective effect on oxidative DNA damage caused by O2− (plasmid pBR322DNA): significant protective effects; inhibition of XO activity (xanthine oxidase (XO) [3]): weakly inhibit
6 | C=C(C)C1CCC2(C)C(C(=O)C=C3C4CC(C)(C(=O)O)CCC4(C)CCC32C)C1(C)CCC(=O)OC (stereo not drawn) [Compound 8] | > 10 | 29.6 ± 10.0 | > 10 | > 10 | 81.9 ± 7.4 | 21.2 ± 8.7 | 7.4 ± 3.1 | > 10 | 
7 | C=C(C)C1CCC2(C)C(C(=O)C=C3C4CC(C)(C(=O)O)CCC4(C)CCC32C)C1(C)CCC(=O)OC(C)C (stereo not drawn) [Compound 9] | > 30 | 39.8 ± 5.4 | > 1 | > 30 | 48.8 ± 6.6 | 38.4 ± 14.6 | −7.0 ± 3.0 | > 1 | 
8 | C=C(C)C1CCC2(C)C(C(=O)C=C3C4CC(C)(C(=O)OC)CCC4(C)CCC32C)C1(C)CCC(=O)O (stereo not drawn) [Compound 10] |  |  |  | 26.1 ± 14.7 |  |  |  |  | 
9 | C=C(C)C1CCC2(C)C(C(=O)C=C3C4CC(C)(C(=O)OC)CCC4(C)CCC32C)C1(C)CCC(=O)OC (stereo not drawn) [Compound 11] | > 30 | 44.3 ± 10.5 |  |  |  |  |  |  | inhibitory effect on NO accumulation in the media induced by LPS ([1]; each at 30 μM, RAW 264.7): about 40%
10 | C=C(C)C1CCC2(C)C(C(=O)C=C3C4CC(C)(C(=O)OC(C)C)CCC4(C)CCC32C)C1(C)CCC(=O)OC (stereo not drawn) [Compound 12] | > 30 | 43.0 ± 4.3 | > 30 | > 30 | −2.5 ± 11.9 | 47.0 ± 1.3 | 28.7 ± 15.9 | > 10 | inhibitory effect on NO accumulation in the media induced by LPS ([1]; each at 30 μM, RAW 264.7): about 40%
11 | C=C(C)C1CCC2(C)C(C(=O)C=C3C4CC(C)(C(=O)OCc5ccccc5)CCC4(C)CCC32C)C1(C)CCC(=O)OC (stereo not drawn) [Compound 13] |  | 44.5 ± 4.2 |  |  |  |  |  |  | melting point: 32 to 38 °C; IC50 ([1]; Mus musculus, RAW264.7): > 30 µM; inhibition at 30 µM ([1]; Mus musculus, RAW264.7, each at 30 μM, RAW 264.7, read-out: inhibitory effect on NO accumulation in the media induced by LPS): ~40%; IC50 [4, 8]: 13.7 ± 4.3 µM; protective effect on oxidative DNA damage caused by O2− (plasmid pBR322DNA): significant protective effects; IC50 (xanthine oxidase (XO) [6]): 175 ± 0.9 µM; IC50 ([5]; Neutrophil): 17 ± 1.5 µM
12 | C=C(C)C1CCC2(C)C(C(=O)C=C3C4CC(C)(C(=O)NC(C)C)CCC4(C)CCC32C)C1(C)CCC(=O)OC (stereo not drawn) [Compound 14] |  |  |  |  |  |  |  |  | melting point: 80 to 85 °C; IC50 ([1]; Mus musculus, RAW264.7): 13.1 ± 5 µM; inhibition of iNOS protein expression (iNOS protein expression): significantly inhibited the iNOS protein expression; protective effect on oxidative DNA damage caused by O2− (plasmid pBR322DNA): significant protective effects; IC50 (xanthine oxidase (XO) [6]): 192 ± 2.7 µM; IC50 ([5]; Neutrophil): 15.6 ± 1.7 µM
13 | C=C(C)C1CCC2(C)C(C(=O)C=C3C4CC(C)(C(=O)Nc5ccccc5)CCC4(C)CCC32C)C1(C)CCC(=O)OC (stereo not drawn) [Compound 15] |  |  |  | 15.5 ± 3.2 |  |  |  |  | 
14 | CC1(C(=O)OCc2ccccc2)CCC2(C)CCC3(C)C(=CC(=O)C4C5(C)CCC(=O)OC(C)(C)C5CCC43C)C2C1 (stereo not drawn) [Compound 16] | > 10 | −2.3 ± 4.6 | > 30 | > 10 | −22.9 ± 7.6 | 25.3 ± 9.9 | −10.7 ± 10.2 | > 30 | 
15 | C=C(C)C1CCC2(C)C(C(=O)C=C3C4CC(C)(C(=O)OCc5ccccc5)CCC4(C)CCC32C)C1(C)CCC(=O)O (stereo not drawn) [Compound 17] |  |  |  | 2.3 ± 0.5 |  |  |  |  | 
16 | CC(C)NC(=O)C1(C)CCC2(C)CCC3(C)C(=CC(=O)C4C5(C)CCC(=O)OC(C)(C)C5CCC43C)C2C1 (stereo not drawn) [Compound 18] | > 10 | 30.0 ± 11.9 | > 30 | > 10 | 2.7 ± 12.5 | 9.7 ± 4.7 | 48.2 ± 8.4 | > 30 | 
17 | CC1(C(=O)Nc2ccccc2)CCC2(C)CCC3(C)C(=CC(=O)C4C5(C)CCC(=O)OC(C)(C)C5CCC43C)C2C1 (stereo not drawn) [Compound 19] | > 30 | 20.5 ± 2.7 | > 10 | > 30 | −1.6 ± 4.4 | 45.2 ± 14.6 | 26.9 ± 3.0 | > 3 | 
18 | C=C(C)C1CCC2(C)C(C(=O)C=C3C4CC(C)(C(=O)NC(C)C)CCC4(C)CCC32C)C1(C)CCC(=O)O (stereo not drawn) [Compound 20] |  |  | 9.8 ± 5.2 |  |  |  |  |  | protective effect on oxidative DNA damage caused by O2− (plasmid pBR322DNA): significant protective effects; inhibition of XO activity (xanthine oxidase (XO) [3]): weakly inhibit
19 | C=C(C)C1CCC2(C)C(C(=O)C=C3C4CC(C)(C(=O)Nc5ccccc5)CCC4(C)CCC32C)C1(C)CCC(=O)O (stereo not drawn) [Compound 21] |  |  |  | 27.7 ± 7.2 |  |  |  |  | 
20 | CC(=N)NCc1cccc(CN)c1 [Compound 1400W, N-(3-aminomethyl) benzylacetamidine, reference compound] | 1.5 ± 0.2 |  |  |  |  |  |  |  | 
21 | c1ccc2c(c1)[I+]c1ccccc1-2 [DPI, reference compound] |  |  | 2.7 ± 2 |  |  |  |  | 1.8 ± 0.4 | 
22 | O=c1c(-c2ccc(O)cc2)coc2cc(O)cc(O)c12 [Genistein, genistein, reference compound] |  |  |  |  |  |  |  |  | IC50 [4, 8]: 26.5 ± 9.1 µM
